Source: patent publication US20090220612A1, “HOLLOW-FIBRE-BASED BIOCOMPATIBLE DRUG DELIVERY DEVICE WITH ONE OR MORE LAYERS” (priority 2005, published 2009)

Assay: Polymer degradation and in vitro 5-FU release from hollow fibres in PBS pH 7.4
Format: physicochemical
Details: FIG. 30
Description: 0.07 g of each hollow fibre was weighed and immersed in 20 ml of de-ionised water in a screw-topped bottle. These were then placed on an orbital shaker maintained at a temperature of 37° C. The pH of the degradation medium was measured every two days to monitor the rate of generation of acidic byproducts. A Jenway (Model 3051) pH meter was used for this purpose.
In vitro drug release studies were carried out in phosphate buffer saline (PBS) at both room temperature (˜25° C.) and 37° C. PBS solution was applied to keep the degrading system at a constant pH 7.4 value. Every type of polymer fibre was cut into 10 pieces, with 5 cm each. At room temperature, each fibre piece was first sealed at one end with bio-adhesive, and was injected with liquid 5-FU with a syringe pump from the other open end before it was sealed. […] The amount of drug release was measured every 24 hours within the 3 months. The quantitative measurement of the amount of drug released was measured with a UV Spectrometer. A calibration curve was performed as the concentration versus absorbance for the drug in buffer (wavelength of absorption, □=266 nm (5-FU) and λ=298 nm (cisplatin and carboplatin) or atomic absorption spectroscopy) which was plotted in a logarithmic scale gave a straight line. […] The absorbance of the drug was noted. […]

O=c1[nH]cc(F)c(=O)[nH]1 [5-FU, fluorouracil]
effect on degradation and drug release rate of polymer hollow fibres: accelerates the degradation and drug release rate
